Results: patent US9492496B2, “Aminothiazoles and their uses” (Novartis AG, priority 2007, dated 2016)

test system: prokaryotic transcription-translation (E. coli S30 extract); assay: In vitro assay for inhibition of prokaryotic transcription-translation (Promega E. coli S30 Extract System, pBESTluc luciferase readout); assay type: biochemical; conditions: 2 uM compound, 2 h at 37° C., luciferase luminescence
Experimental: In vitro assay for inhibition of prokaryotic transcription-translation [as described in the following references: 1. Zubay, G. (1973) In vitro synthesis of protein in microbial systems. Annu. Rev. Genet. 7, 267.87. 2. Zubay, G. (1980) The isolation and properties of CAP, the catabolite gene activator. Meth. Enzymol. 65, 856.77]. Antibiotic and compound dilutions: stock solutions of compound to be assayed at 2 μM are 80 μM in 40% DMSO. Stock solutions of compounds to be assayed at 10 μM are 400 μM in 40% DMSO.
Assay setup and protocol for Promega E. coli S30 Extract System
The assay is performed as follows: pipet 3.5 μl of 286 ng/μl template DNA (pBESTluc™) into assay wells. Negative control wells receive sdH2O only. Transfer 0.5 μl of 40× compound stock solution to assay wells. Positive control wells (no compound) receive 0.5 μl 40% DMSO sdH2O. Pipet 16 μl of master mix into assay wells. Incubate plate for two hours at 37° C. Rapidly chill the assay plate on ice for five minutes to stop the reaction. Add an equal volume (20 μl) of room temperature Steady-Glo® Luciferase assay reagent to all assay wells. Incubate 20 minutes and read light emitted with luminometer. Results are reported as % inhibition a 2 μM or 10 μM.

SMILES	% inh. @ 2 uM
CNC(=O)C[C@@H]1NC(=O)c2csc(n2)-c2ccc(-c3nc(NC(=O)CC[C@H](CC(=O)O)C(=O)O)cs3)nc2-c2csc(n2)-c2csc(n2)[C@H]([C@@H](O)c2ccccc2)NC(=O)CNC(=O)c2nc(sc2COC)C(C(C)C)NC(=O)c2nc1sc2C (stereo partly shown) [Compound 1]	2 uM = 65.4%
CNC(=O)C[C@@H]1NC(=O)c2csc(n2)-c2ccc(-c3nc(NC(=O)CC[C@@H](CC(=O)O)C(=O)O)cs3)nc2-c2csc(n2)-c2csc(n2)[C@H]([C@@H](O)c2ccccc2)NC(=O)CNC(=O)c2nc(sc2COC)C(C(C)C)NC(=O)c2nc1sc2C (stereo partly shown) [Compound 2]	2 uM = 72.8%
CNC(=O)C[C@@H]1NC(=O)c2csc(n2)-c2ccc(-c3nc(N(CCCC(=O)O)C(=O)OCCCC(=O)O)cs3)nc2-c2csc(n2)-c2csc(n2)[C@H]([C@@H](O)c2ccccc2)NC(=O)CNC(=O)c2nc(sc2COC)C(C(C)C)NC(=O)c2nc1sc2C (stereo partly shown) [Compound 3]	2 uM = 67.8%
CNC(=O)C[C@@H]1NC(=O)c2csc(n2)-c2ccc(-c3nc(N(CCCC(=O)O)C(=O)O[C@H]4CC[C@H](C(=O)O)CC4)cs3)nc2-c2csc(n2)-c2csc(n2)[C@H]([C@@H](O)c2ccccc2)NC(=O)CNC(=O)c2nc(sc2COC)C(C(C)C)NC(=O)c2nc1sc2C (stereo partly shown) [Compound 4]	2 uM = 85.3%
CNC(=O)C[C@@H]1NC(=O)c2csc(n2)-c2ccc(-c3nc(N(CCCCCCC(=O)O)C(=O)O[C@H]4CC[C@H](C(=O)O)CC4)cs3)nc2-c2csc(n2)-c2csc(n2)[C@H]([C@@H](O)c2ccccc2)NC(=O)CNC(=O)c2nc(sc2COC)C(C(C)C)NC(=O)c2nc1sc2C (stereo partly shown) [Compound 5]	2 uM = 78.5%
CNC(=O)C[C@@H]1NC(=O)c2csc(n2)-c2ccc(-c3nc(N(CCCCC(=O)O)C(=O)O[C@H]4CC[C@H](C(=O)O)CC4)cs3)nc2-c2csc(n2)-c2csc(n2)[C@H]([C@@H](O)c2ccccc2)NC(=O)CNC(=O)c2nc(sc2COC)C(C(C)C)NC(=O)c2nc1sc2C (stereo partly shown) [Compound 6]	2 uM = 86.8%
CNC(=O)C[C@@H]1NC(=O)c2csc(n2)-c2ccc(-c3nc(N(CCCCCC(=O)O)C(=O)O[C@H]4CC[C@H](C(=O)O)CC4)cs3)nc2-c2csc(n2)-c2csc(n2)[C@H]([C@@H](O)c2ccccc2)NC(=O)CNC(=O)c2nc(sc2COC)C(C(C)C)NC(=O)c2nc1sc2C (stereo partly shown) [Compound 7]	2 uM = 86.0%
CNC(=O)C[C@@H]1NC(=O)c2csc(n2)-c2ccc(-c3nc(N(CCCC(=O)O)C(=O)CCCCC(=O)O)cs3)nc2-c2csc(n2)-c2csc(n2)[C@H]([C@@H](O)c2ccccc2)NC(=O)CNC(=O)c2nc(sc2COC)C(C(C)C)NC(=O)c2nc1sc2C (stereo partly shown) [Compound 8]	2 uM = 59.7%
CNC(=O)C[C@@H]1NC(=O)c2csc(n2)-c2ccc(-c3nc(N(CCCCC(=O)O)C(=O)O[C@H]4C[C@H](C(=O)O)C4)cs3)nc2-c2csc(n2)-c2csc(n2)[C@H]([C@@H](O)c2ccccc2)NC(=O)CNC(=O)c2nc(sc2COC)C(C(C)C)NC(=O)c2nc1sc2C (stereo partly shown) [Compound 9]	2 uM = 67.1%
CNC(=O)C[C@@H]1NC(=O)c2csc(n2)-c2ccc(-c3nc(N(CCCCC(=O)O)C(=O)[C@H]4CC[C@H]4C(=O)O)cs3)nc2-c2csc(n2)-c2csc(n2)[C@H]([C@@H](O)c2ccccc2)NC(=O)CNC(=O)c2nc(sc2COC)C(C(C)C)NC(=O)c2nc1sc2C (stereo partly shown) [Compound 10]	2 uM = 2.0%
CNC(=O)C[C@@H]1NC(=O)c2csc(n2)-c2ccc(-c3nc(NC(=O)N4C[C@H](CCC(=O)O)C[C@H](CCC(=O)O)C4)cs3)nc2-c2csc(n2)-c2csc(n2)[C@H]([C@@H](O)c2ccccc2)NC(=O)CNC(=O)c2nc(sc2COC)C(C(C)C)NC(=O)c2nc1sc2C (stereo partly shown) [Compound 11]	2 uM = 92.3%
CNC(=O)C[C@@H]1NC(=O)c2csc(n2)-c2ccc(-c3nc(N(CCCC(=O)O)C(=O)CCCCCC(=O)O)cs3)nc2-c2csc(n2)-c2csc(n2)[C@H]([C@@H](O)c2ccccc2)NC(=O)CNC(=O)c2nc(sc2COC)C(C(C)C)NC(=O)c2nc1sc2C (stereo partly shown) [Compound 12]	2 uM = 82.4%
CNC(=O)C[C@@H]1NC(=O)c2csc(n2)-c2ccc(-c3nc(N(CCCCC(=O)O)C(=O)OCc4ccc(C(=O)O)cn4)cs3)nc2-c2csc(n2)-c2csc(n2)[C@H]([C@@H](O)c2ccccc2)NC(=O)CNC(=O)c2nc(sc2COC)C(C(C)C)NC(=O)c2nc1sc2C (stereo partly shown) [Compound 13]	2 uM = 74.9%
CNC(=O)C[C@@H]1NC(=O)c2csc(n2)-c2ccc(-c3nc(N(CCCC(=O)O)C(=O)c4ccc(C(=O)O)cn4)cs3)nc2-c2csc(n2)-c2csc(n2)[C@H]([C@@H](O)c2ccccc2)NC(=O)CNC(=O)c2nc(sc2COC)C(C(C)C)NC(=O)c2nc1sc2C (stereo partly shown) [Compound 14]	2 uM = 55.5%
CNC(=O)C[C@@H]1NC(=O)c2csc(n2)-c2ccc(-c3nc(N(CCCC(=O)O)C(=O)C[C@H]4CC[C@H](C(=O)O)CC4)cs3)nc2-c2csc(n2)-c2csc(n2)[C@H]([C@@H](O)c2ccccc2)NC(=O)CNC(=O)c2nc(sc2COC)C(C(C)C)NC(=O)c2nc1sc2C (stereo partly shown) [Compound 15]	2 uM = 64.5%
CNC(=O)C[C@@H]1NC(=O)c2csc(n2)-c2ccc(-c3nc(N(CCCCC(=O)O)C(=O)[C@H]4CC[C@H](C(=O)O)CC4)cs3)nc2-c2csc(n2)-c2csc(n2)[C@H]([C@@H](O)c2ccccc2)NC(=O)CNC(=O)c2nc(sc2COC)C(C(C)C)NC(=O)c2nc1sc2C (stereo partly shown) [Compound 16]	2 uM = 64.3%
CNC(=O)C[C@@H]1NC(=O)c2csc(n2)-c2ccc(-c3nc(N(CCCCC(=O)O)C(=O)C[C@H]4CC[C@H](C(=O)O)CC4)cs3)nc2-c2csc(n2)-c2csc(n2)[C@H]([C@@H](O)c2ccccc2)NC(=O)CNC(=O)c2nc(sc2COC)C(C(C)C)NC(=O)c2nc1sc2C (stereo partly shown) [Compound 17]	2 uM = 63.9%
CNC(=O)C[C@@H]1NC(=O)c2csc(n2)-c2ccc(-c3nc(N(CCCCC(=O)O)C(=O)N[C@H]4CC[C@H](C(=O)O)CC4)cs3)nc2-c2csc(n2)-c2csc(n2)[C@H]([C@@H](O)c2ccccc2)NC(=O)CNC(=O)c2nc(sc2COC)C(C(C)C)NC(=O)c2nc1sc2C (stereo partly shown) [Compound 18]	2 uM = 52.7%
CNC(=O)C[C@@H]1NC(=O)c2csc(n2)-c2ccc(-c3nc(N(C/C=C/C(=O)O)C(=O)O[C@H]4CC[C@H](C(=O)O)CC4)cs3)nc2-c2csc(n2)-c2csc(n2)[C@H]([C@@H](O)c2ccccc2)NC(=O)CNC(=O)c2nc(sc2COC)C(C(C)C)NC(=O)c2nc1sc2C (stereo partly shown) [Compound 19]	2 uM = 76.4%
CNC(=O)C[C@@H]1NC(=O)c2csc(n2)-c2ccc(-c3nc(N(CC(CC(=O)O)OC)C(=O)O[C@H]4CC[C@H](C(=O)O)CC4)cs3)nc2-c2csc(n2)-c2csc(n2)[C@H]([C@@H](O)c2ccccc2)NC(=O)CNC(=O)c2nc(sc2COC)C(C(C)C)NC(=O)c2nc1sc2C (stereo partly shown) [Compound 20]	2 uM = 80.6%
CNC(=O)C[C@@H]1NC(=O)c2csc(n2)-c2ccc(-c3nc(N(CCCCC(=O)O)C(=O)N4CCC(C(=O)O)CC4)cs3)nc2-c2csc(n2)-c2csc(n2)[C@H]([C@@H](O)c2ccccc2)NC(=O)CNC(=O)c2nc(sc2COC)C(C(C)C)NC(=O)c2nc1sc2C (stereo partly shown) [Compound 21]	2 uM = 37.4%
CNC(=O)C[C@@H]1NC(=O)c2csc(n2)-c2ccc(-c3nc(NC(=O)N(CCCC(=O)O)CCCC(=O)O)cs3)nc2-c2csc(n2)-c2csc(n2)[C@H]([C@@H](O)c2ccccc2)NC(=O)CNC(=O)c2nc(sc2COC)C(C(C)C)NC(=O)c2nc1sc2C (stereo partly shown) [Compound 22]	2 uM = 79.8%
